From US4404230A, “4-Hydroxy-1,2-Benzisothiazol-3(2H)-one-1,1-dioxides and salts thereof” (priority 1980, dated 1983)

Columns and labels:
taste testers [1] = assay: Determination of the threshold concentration (sweet taste); type: in vivo
Experimental: Aqueous solutions having concentrations of 1:12,500, 1:25,000, 1:50,000, and 1:100,000 were prepared of test compounds A, B and C and of comparison compounds X, Y and Z, and each was evaluated at 5 taste testers according to the following scoring system: Very sweet (=3 points), medium sweet (=2 points), weakly sweet (=1 point), and not sweet (=0 point). The tests were carried out as described by H. G. Schutz and F. J. Pilgrim in Food Research 22, 206 (1957). The dilution perceptible as sweet was defined as having the concentration at which the average value of the evaluation points reached 1.0 or more.

taste testers [2] = assay: Determination of the relative sweetening power in comparison to saccharose; type: in vivo; conditions: compared with 3% aqueous solution of saccharose
From the text: The relative sweetening power (often also defined as degree of sweetness) of sweetening agents in comparison with saccharose (cane sugar) varies considerably with concentration. […] Therefore, for the determination of the relative sweetening power of the test compounds a 3% aqueous solution of saccharose was always used for comparison.

taste testers [3] = assay: Determination of the taste quality; type: in vivo
Experimental: The tests were performed in analogy to the method of DuBois, G. A. Crosby, R. A. Stephanson and R. E. Wingard Jr., J. Agric. […] The test compounds were used as aqueous solutions at a concentration which corresponds to an about 5% saccharose solution. As comparison compound saccharose was used. The tests were carried out under identical conditions. Only the characterization of the taste was evaluated, because the intensity was already determined in the preceding experiments. The following criteria were determined by each tester: Percentage sweet to percentage bitter to percentage another taste quality. Furthermore, the presence or absence of an after taste of the individual test compounds was determined. Each substance was tested twice with regard to five different determinations.

mice [4] = assay: Effect on maximum electroshock convulsions in mice; type: in vivo, Chbb:NMRI-mice; conditions: 200 mg/kg p.o.; for Number of protected animals: N = 10
Experimental: According to Swinyard, Brown and Goodman [J. Pharmacol. exp. Ther. 106, 319 (1952)], 200 mg/kg of substance B in aqua dist. solution were administered perorally to 10 male Chbb:NMRI-mice (SPF). After 30, 150 and 300 minutes tonic extensor spasms were induced by alternating current via head-electrodes (50 mA, 50 Hz, 2 sec. duration). Tonic extensor spasms of the extremities cannot be observed after treatment with substances having an anticonvulsive activity.

mice [5] = assay: Effect on reserpine-hypothermia in mice; type: in vivo, Chbb:NMRI-mice
Experimental: In analogy to Askew [Life Sci. 2, 275, (1963)] hypothermia was induced by s.c. administration of 3 mg/kg of reserpine in male Chbb:NMRI-mice (SPF) having a body weight of 20-26 gm. […] A control group received only the solvent p.o.; 1 to 4 hours after administration the temperature was measured every hour. The values given in the table are at average temperature values ±SD.

rats [6] = assay: Effect on choleresis in rats; type: in vivo, Chbb:THOM-rats
Experimental: A cannula was tied to the ductus choledochus of anesthetized, fasted male Chbb:THOM-rats (SPF) having a body weight of 180-220 gm, and the rate of flow of bile liquid was registered via a drop counter. 100 or 200 mg/kg of substance B in aqua dist. solution were administered intraduodenally to each of 10 animals. A control group received only the solvent. The number of the drops received within 1 hour before the treatment was compared with the number of the drops received within 1-5 hours after treatment.
In Table 10 the average number of drops 1-5 hours after treatment is shown in percent, compared with the values before treatment.

Mouse = assay: Test for acute toxicity, mouse; conditions: for Animals which died: 10 animals
Experimental: (§1) The acute toxicity was determined after oral administration of substance B to male and female mice, rats and dogs. The substance was administered to mice and rats in the form of a suspension in tylose and to dogs in the form of a solution in water.

Rat = assay: Test for acute toxicity, rat; conditions: for Animals which died: 6 animals
Experimental: as §1

Dog = assay: Test for acute toxicity, dog; conditions: for Animals which died: 2 animals
Experimental: as §1

rats [7] = assay: Test for subacute toxicity in the rat; type: in vivo, Chbb:Thom-rats; conditions: 750 mg/kg daily, 5 weeks
Experimental: The test was carried out on 10 male and 10 female Chbb:Thom-rats. During a period of 5 weeks 750 mg/kg of substance B were administered to the animals daily. […] After the 5 weeks the animals were killed, and the following organs were dissected for histological examination: heart, lungs, liver, spleen, suprarenals, brain, kidney and pancreas.

Salmonella typhimurium = assay: Prior serial dilution test for inhibition of microorganism growth (AMES-system); type: cell-based; conditions: highest dosage used
Experimental: Compound B was tested at concentrations of 0.25, 2.5, 5 and 10 mg/plate.

[8] = 10 g/kg oral, during the observation time

SMILES: O=C1NS(=O)(=O)c2cccc(O)c21.[Na]
- Average value of evaluation points (taste testers [1]; concentration 1:25000): 2.6 points
- Average value of evaluation points (taste testers [1]; concentration 1:50000): 1.2 points
- Average value of evaluation points (taste testers [1]; concentration 1:100000): 0.0 points
- Relative sweetening power (Saccharose = 1) (taste testers [2]): 210
- purity of the taste (taste testers [3]): 94-96%
- After taste (taste testers [3]; 1:10000, 10 determinations): 5
- Percentage bitter (taste testers [3]; 1:10000, 10 determinations): 2%
- Percentage other taste (taste testers [3]; 1:10000, 10 determinations): 2%
- Percentage sweet (taste testers [3]; 1:10000, 10 determinations): 96%
- anticonvulsive activity (in words) (mice [4]): does not show any anticonvulsive activity
- Number of protected animals (mice [4]; 30 min): 0
- Number of protected animals (mice [4]; 150 min): 0
- Number of protected animals (mice [4]; 300 min): 0
- body temperature (mice [5]; 100 mg/kg p.o., 1 hour): 26.0 °C
- body temperature (mice [5]; 100 mg/kg p.o., 2 hours): 26.7 °C
- body temperature (mice [5]; 100 mg/kg p.o., 3 hours): 26.6 °C
- body temperature (mice [5]; 100 mg/kg p.o., 4 hours): 26.8 °C
- body temperature (mice [5]; 400 mg/kg p.o. [sic], 1 hour): 24.0 °C
- body temperature (mice [5]; 400 mg/kg p.o. [sic], 2 hours): 24.7 °C
- body temperature (mice [5]; 400 mg/kg p.o. [sic], 3 hours): 25.3 °C
- body temperature (mice [5]; 400 mg/kg p.o. [sic], 4 hours): 25.9 °C
- effect on reserpine-induced hypothermia (in words) (mice [5]; 40 and 100 mg/kg p.o.): does not show an effect on hypothermia in mice induced by reserpine
- Choleresis in %, compared with the values before treatment (rats [6]; 100 mg/kg i.d., 1 hour): 97%
- Choleresis, average number of drops (rats [6]; 100 mg/kg i.d., 1 hour): 53.3 drops/ hr
- Choleresis in %, compared with the values before treatment (rats [6]; 100 mg/kg i.d., 2 hours): 94%
- Choleresis, average number of drops (rats [6]; 100 mg/kg i.d., 2 hours): 51.7 drops/ hr
- Choleresis in %, compared with the values before treatment (rats [6]; 100 mg/kg i.d., 3 hours): 92%
- Choleresis, average number of drops (rats [6]; 100 mg/kg i.d., 3 hours): 50.7 drops/ hr
- Choleresis in %, compared with the values before treatment (rats [6]; 100 mg/kg i.d., 4 hours): 91%
- Choleresis, average number of drops (rats [6]; 100 mg/kg i.d., 4 hours): 49.9 drops/ hr
- Choleresis in %, compared with the values before treatment (rats [6]; 100 mg/kg i.d., 5 hours): 90%
- Choleresis, average number of drops (rats [6]; 100 mg/kg i.d., 5 hours): 49.5 drops/ hr
- Choleresis in %, compared with the values before treatment (rats [6]; 200 mg/kg i.d., 1 hour): 94%
- Choleresis, average number of drops (rats [6]; 200 mg/kg i.d., 1 hour): 44.1 drops/ hr
- Choleresis in %, compared with the values before treatment (rats [6]; 200 mg/kg i.d., 2 hours): 92%
- Choleresis, average number of drops (rats [6]; 200 mg/kg i.d., 2 hours): 43.1 drops/ hr
- Choleresis in %, compared with the values before treatment (rats [6]; 200 mg/kg i.d., 3 hours): 92%
- Choleresis, average number of drops (rats [6]; 200 mg/kg i.d., 3 hours): 43.1 drops/ hr
- Choleresis in %, compared with the values before treatment (rats [6]; 200 mg/kg i.d., 4 hours): 92%
- Choleresis, average number of drops (rats [6]; 200 mg/kg i.d., 4 hours): 43.5 drops/ hr
- Choleresis in %, compared with the values before treatment (rats [6]; 200 mg/kg i.d., 5 hours): 94%
- Choleresis, average number of drops (rats [6]; 200 mg/kg i.d., 5 hours): 44.4 drops/ hr
- effect on choleresis (in words) (rats [6]; 100 and 200 mg/kg i.d.): does not show any intraduodenal effects on choleresis in rats
- Animals which died (Mouse; 10 g/kg oral, 1 day): 0
- Animals which died (Mouse; 10 g/kg oral, 7 days): 0
- Animals which died (Mouse; 10 g/kg oral, 14 days): 0
- deaths (in words) (Mouse; [8]): no animals died
- behavior (Mouse; mouse, in vivo, po): completely normal behavior
- toxic symptoms (Mouse; mouse, in vivo, po): no toxic symptoms could be observed
- Animals which died (Rat; 10 g/kg oral, 1 day): 0
- Animals which died (Rat; 10 g/kg oral, 7 days): 0
- Animals which died (Rat; 10 g/kg oral, 14 days): 0
- deaths (in words) (Rat; [8]): no animals died
- behavior (Rat; rat, in vivo, po): completely normal behavior
- toxic symptoms (Rat; rat, in vivo, po): no toxic symptoms could be observed
- Animals which died (Dog; 5 g/kg oral, 1 day): 0
- Animals which died (Dog; 5 g/kg oral, 7 days): 0
- Animals which died (Dog; 5 g/kg oral, 14 days): 0
- deaths (in words) (Dog; 5 g/kg oral, during the observation time): no animals died
- behavior (Dog; dog, in vivo, po): completely normal behavior
- toxic symptoms (Dog; dog, in vivo, po): no toxic symptoms could be observed
- behavior (rats [7]): normal behavior
- spontaneous deaths (rats [7]): No spontaneous deaths could be observed
- histological examination of organs (rats [7]; heart, lungs, liver, spleen, suprarenals, brain, kidney, pancreas): did not show any pathological findings
- inhibition of the microorganism growth (Salmonella typhimurium): did not show an inhibition of the microorganism growth
